In patent US10543212B2, “Substituted amines for treating cardiac diseases” (Cardurion Pharmaceuticals, LLC, priority 2017, dated 2020):

Target: T1, Full-length, GST-tagged, human CaMKIIδ (Homo sapiens, UniProt Q13557)
T1 construct: Full-Length, Glutathione-S-Transferase(GST)-Tagged, Human CaMKIIδ was purchased from Carna Biosciences; purchased Carna Biosciences 02-111
Assay: CaMKIIδ binding assay (TR-FRET with BODIPY-labeled probe ligand)
Summary of the method: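 TR-FRET probe-displacement binding: 0.5 nM GST-CaMKIIδ with 10 μg/mL calmodulin, 1 mM CaCl2, 0.21 nM Tb-anti-GST Ab and 300 nM BODIPY probe in HEPES pH 7.6 buffer. Eight-point 4-fold dilutions, 1 hr at room temperature. IC50 from logistic fit; 100% inhibition defined by 3 μM parent compound.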

[1] = CaMKIIδ binding assay, results of Table 2
[2] = Table 2, activity class for CaMKIIδ

T1 sequence (Q13557 1-478 isoform Q13557-12): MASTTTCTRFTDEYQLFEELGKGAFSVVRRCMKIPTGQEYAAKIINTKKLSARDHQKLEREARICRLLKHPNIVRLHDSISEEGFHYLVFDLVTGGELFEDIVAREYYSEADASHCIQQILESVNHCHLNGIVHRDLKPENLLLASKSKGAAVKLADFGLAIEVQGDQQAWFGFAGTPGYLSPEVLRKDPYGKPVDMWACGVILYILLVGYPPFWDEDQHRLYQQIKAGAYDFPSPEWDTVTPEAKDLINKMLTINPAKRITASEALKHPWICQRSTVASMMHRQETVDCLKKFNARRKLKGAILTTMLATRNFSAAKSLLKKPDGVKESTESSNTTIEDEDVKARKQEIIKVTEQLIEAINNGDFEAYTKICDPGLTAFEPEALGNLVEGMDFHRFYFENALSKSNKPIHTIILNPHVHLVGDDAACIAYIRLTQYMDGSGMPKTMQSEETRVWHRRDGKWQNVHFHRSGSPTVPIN

Row | SMILES | IC50 [1] [nM] | IC50 [2] [nM] | further results
1 | C[C@@H](Cn1cnnn1)Oc1cc(-c2cnc(Nc3cn(C4CC5(C4)CN(C4(C#N)CCOCC4)C5)nc3OCC(F)(F)F)nc2)ccc1Cl [Example 1010, (S)-4-(6-(4-((5-(3-((1-(1H-tetrazol-1-yl)propan-2-yl)oxy)-4-chlorophenyl)pyrimidin-2-yl)amino)-3-(2,2,2-trifluoroethoxy)-1H-pyrazol-1-yl)-2-azaspiro[3.3]heptan-2-yl)tetrahydro-2H-pyran-4-carbonitrile] | – | – | IC50 (CaMKIIδ binding assay, activity class per Table 2): < 10 nM
2 | C[C@@H](Cn1cnnn1)Oc1cc(-c2cnc(Nc3cc(N4CCN(C5CCOCC5)CC4)ncc3OC(F)(F)F)nc2)ccc1Cl [Example 541, (S)-5-(3-((1-(1H-tetrazol-1-yl)propan-2-yl)oxy)-4-chlorophenyl)-N-(2-(4-(tetrahydro-2H-pyran-4-yl)piperazin-1-yl)-5-(trifluoromethoxy)pyridin-4-yl)pyrimidin-2-amine] | < 10 | – | –
3 | C[C@@H](Cn1cnnn1)Oc1cc(-c2cnc(Nc3cn([C@H]4CC[C@H](N5CCC5)CC4)nc3C(F)(F)F)nc2)ccc1Cl [Example 779, 5-(3-(((S)-1-(1H-tetrazol-1-yl)propan-2-yl)oxy)-4-chlorophenyl)-N-(1-(trans-4-(azetidin-1-yl)cyclohexyl)-3-(trifluoromethyl)-1H-pyrazol-4-yl)pyrimidin-2-amine] | – | – | IC50 (Table 2, CaMKIIδ binding assay, activity given as class A/B/C): < 10 nM
4 | COc1cc(C)c(C(=O)N2CCOCC2)cc1Nc1ncc(-c2ccc(Cl)c(O[C@@H](C)Cn3cnnn3)c2)cn1 [Example 439, (S)-(5-((5-(3-((1-(1H-tetrazol-1-yl)propan-2-yl)oxy)-4-chlorophenyl)pyrimidin-2-yl)amino)-4-methoxy-2-methylphenyl)(morpholino)methanone] | < 10 | – | –
5 | COc1ccc(N2CCC(N3CCOCC3)CC2)cc1Nc1ncc(-c2ccc(C#N)c(O[C@@H](C)COC(F)F)c2)cn1 [Example 495, (S)-2-((1-(difluoromethoxy)propan-2-yl)oxy)-4-(2-((2-methoxy-5-(4-morpholinopiperidin-1-yl)phenyl)amino)pyrimidin-5-yl)benzonitrile] | 10 to 100 | – | –
6 | COc1cc(N2CCN3CCOCC3C2)ccc1Nc1ncc(-c2ccc(Cl)c(O[C@@H](C)Cn3cnnn3)c2)cn1 (stereo partly drawn) [Example 673, 5-(3-(((S)-1-(1H-tetrazol-1-yl)propan-2-yl)oxy)-4-chlorophenyl)-N-(4-(hexahydropyrazino[2,1-c][1,4]oxazin-8(1H)-yl)-2-methoxyphenyl)pyrimidin-2-amine] | – | < 10 | –
7 | Cc1cc(Nc2ncc(-c3ccc(Cl)c(O[C@@H](C)Cn4cnnn4)c3)cn2)n(CC(F)(F)F)n1 [Example 659, (S)-5-(3-((1-(1H-tetrazol-1-yl)propan-2-yl)oxy)-4-chlorophenyl)-N-(3-methyl-1-(2,2,2-trifluoroethyl)-1H-pyrazol-5-yl)pyrimidin-2-amine] | – | 10 to 100 | –
8 | CCc1cc2c(cc1Nc1ncc(-c3ccc(C#N)c(O[C@@H](C)Cn4cnnn4)c3)cn1)CN(C1COC1)CC2 [Example 516, (S)-2-((1-(1H-tetrazol-1-yl)propan-2-yl)oxy)-4-(2-((6-ethyl-2-(oxetan-3-yl)-1,2,3,4-tetrahydroisoquinolin-7-yl)amino)pyrimidin-5-yl)benzonitrile] | 10 to 100 | – | –
9 | C[C@@H](Cn1cnnn1)Oc1cc(-c2cnc(Nc3cn(CC4CCNC4)nc3C(F)(F)F)nc2)ccc1Cl (stereo partly drawn) [Example 572, 5-(3-(((S)-1-(1H-tetrazol-1-yl)propan-2-yl)oxy)-4-chlorophenyl)-N-(1-(pyrrolidin-3-ylmethyl)-3-(trifluoromethyl)-1H-pyrazol-4-yl)pyrimidin-2-amine] | < 10 | – | –
10 | C[C@@H](Cn1cnnn1)Oc1cc(-c2cnc(Nc3cn(C4CN(C5CCOCC5)C4)nc3C(F)(F)F)nc2)ccc1Cl [Example 698, (S)-5-(3-((1-(1H-tetrazol-1-yl)propan-2-yl)oxy)-4-chlorophenyl)-N-(1-(1-(tetrahydro-2H-pyran-4-yl)azetidin-3-yl)-3-(trifluoromethyl)-1H-pyrazol-4-yl)pyrimidin-2-amine] | – | < 10 | –
